The structures appear in SMILES notation.

The nature of test [1]: DRUGMATRIX: GABAA, Muscimol, Central radioligand binding (ligand: [3H] Muscimol). The format is cell membranes, Rattus norvegicus, Wistar, Brain, Membrane. Conditions: Not Active = under 50% inhibition at 10 µM.
Another test addresses Melanocortin receptor 4 (Homo sapiens, UniProt P32245). The class given is cell membranes, Membrane. Conditions: hek293.
Another test addresses T1, Substance-K receptor (Homo sapiens, UniProt P21452).
T1 sequence (P21452 whole entry): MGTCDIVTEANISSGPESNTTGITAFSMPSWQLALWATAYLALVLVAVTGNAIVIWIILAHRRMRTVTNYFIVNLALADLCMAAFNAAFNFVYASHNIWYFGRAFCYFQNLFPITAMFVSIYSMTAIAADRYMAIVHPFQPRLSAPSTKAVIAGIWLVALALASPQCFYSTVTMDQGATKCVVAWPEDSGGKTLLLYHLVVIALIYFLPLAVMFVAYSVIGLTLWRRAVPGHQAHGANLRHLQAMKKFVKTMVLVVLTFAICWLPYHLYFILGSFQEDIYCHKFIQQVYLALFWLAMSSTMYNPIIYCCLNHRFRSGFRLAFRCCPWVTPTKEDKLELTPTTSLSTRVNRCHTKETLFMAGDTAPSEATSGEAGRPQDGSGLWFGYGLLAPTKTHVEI
The class given is cell membranes, CHO, Membrane.

Another test deals with T2, Calcitonin receptor (Homo sapiens, UniProt P30988).
T2 sequence (P30988 whole entry): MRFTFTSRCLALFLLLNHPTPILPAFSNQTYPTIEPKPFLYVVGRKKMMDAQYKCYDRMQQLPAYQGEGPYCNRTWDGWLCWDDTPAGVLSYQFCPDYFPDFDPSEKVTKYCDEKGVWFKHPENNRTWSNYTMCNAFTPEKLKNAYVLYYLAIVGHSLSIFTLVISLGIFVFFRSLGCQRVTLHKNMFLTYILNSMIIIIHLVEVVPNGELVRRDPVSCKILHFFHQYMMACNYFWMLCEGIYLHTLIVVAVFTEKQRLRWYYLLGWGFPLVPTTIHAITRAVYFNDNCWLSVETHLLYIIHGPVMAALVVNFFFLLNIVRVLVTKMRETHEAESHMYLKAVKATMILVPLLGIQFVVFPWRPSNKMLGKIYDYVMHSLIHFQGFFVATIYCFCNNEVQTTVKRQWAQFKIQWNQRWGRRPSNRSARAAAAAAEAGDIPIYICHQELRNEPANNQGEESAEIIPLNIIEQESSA
The format is cell membranes, Membrane. Particulars: t47d.

Test [2] can be described thus: DRUGMATRIX: Imidazoline I2, Central radioligand binding (ligand: [3H] Idazoxan). The format is cell membranes, Rattus norvegicus, Wistar, Cerebral cortex, Membrane. Particulars: Not Active = under 50% inhibition at 10 µM.
The target in another test is Histamine H2 receptor (Homo sapiens, UniProt P25021). The class given is cell membranes, CHO-K1, Membrane. Also: in other assays of this panel Not Active means under 50% inhibition at 10 µM.
A short description of test [3]: DRUGMATRIX: Glutamate, AMPA radioligand binding (ligand: [3H] AMPA). The format is cell membranes, Rattus norvegicus, Wistar, Cerebral cortex, Membrane. Conditions: Not Active = under 50% inhibition at 10 µM.

Sequence of Melanocortin receptor 4 (P32245 whole entry): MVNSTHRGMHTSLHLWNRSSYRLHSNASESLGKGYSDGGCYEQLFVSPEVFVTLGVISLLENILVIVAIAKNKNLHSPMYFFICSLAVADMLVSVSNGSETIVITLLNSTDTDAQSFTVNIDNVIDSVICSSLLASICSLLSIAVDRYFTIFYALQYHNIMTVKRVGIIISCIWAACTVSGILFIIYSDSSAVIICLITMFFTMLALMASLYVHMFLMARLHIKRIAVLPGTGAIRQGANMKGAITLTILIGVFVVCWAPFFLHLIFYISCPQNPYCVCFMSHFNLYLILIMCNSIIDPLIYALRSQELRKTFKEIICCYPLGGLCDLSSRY
Sequence of Histamine H2 receptor (P25021 whole entry): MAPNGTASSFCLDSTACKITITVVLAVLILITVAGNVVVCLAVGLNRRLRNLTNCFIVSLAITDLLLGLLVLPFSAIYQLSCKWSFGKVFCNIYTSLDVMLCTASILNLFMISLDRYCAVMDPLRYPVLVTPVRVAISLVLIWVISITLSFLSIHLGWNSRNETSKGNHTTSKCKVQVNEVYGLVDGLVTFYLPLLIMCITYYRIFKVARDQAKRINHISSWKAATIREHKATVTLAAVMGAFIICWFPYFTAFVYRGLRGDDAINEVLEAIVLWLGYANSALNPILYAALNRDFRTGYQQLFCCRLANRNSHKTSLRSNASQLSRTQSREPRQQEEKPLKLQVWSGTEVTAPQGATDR

Broadly, the IC50 is the concentration needed to halve the response being measured. For orientation: Ki means a dissociation constant, usually derived from enzyme kinetics or from competition with a known ligand. On to `C[N+](C)(C)CCOC(N)=O.[Cl-]` [CARBACHOL], for which the IC50 result (in test [1]; against Melanocortin receptor 4; against Substance-K receptor (cho); at Calcitonin receptor; in test [2]; against Histamine H2 receptor (cho-k1)) was “Not Active” each time. Moreover, the IC50 entry in test [3] is reported as “Not Active”. For the same molecule, the Ki result in test [1], in test [2] and in test [3] was “Not Active” throughout.

`CCCCCCNC(=O)n1cc(F)c(=O)[nH]c1=O` [CARMOFUR]: the IC50 entry (in test [1]; on Melanocortin receptor 4; on Substance-K receptor (cho); at Calcitonin receptor; in test [2]; at Histamine H2 receptor (cho-k1)) was “Not Active” in each case. For the same molecule, the IC50 entry in test [3] is on record as “Not Active”. Further, the Ki result in test [1], in test [2] and in test [3] was “Not Active” in each case.

For the molecule `COc1ccccc1OCCNCC(O)COc1cccc2[nH]c3ccccc3c12` (configuration not stated) [CARVEDILOL], the IC50 entry in test [1] is “Not Active”; on Melanocortin receptor 4, “Not Active”; at Substance-K receptor (cho), “Not Active”; at Calcitonin receptor it was “Not Active”; in test [2] (read-out: IC50) it was 1920 nM; at Histamine H2 receptor (cho-k1), “Not Active”. Besides, the IC50 entry in test [3] is “Not Active”. Further, the Ki entry in test [1] is “Not Active”; in test [2] (read-out: Ki) it was 1280 nM; in test [3], “Not Active”.

Regarding `Cl.NC[C@H]1CC[C@H](C(=O)Oc2ccc(CCC(=O)O)cc2)CC1` [CETRAXATE HYDROCHLORIDE], the IC50 entry (in test [1]; against Melanocortin receptor 4; against Substance-K receptor (cho); at Calcitonin receptor; in test [2]; against Histamine H2 receptor (cho-k1)) was “Not Active” throughout. For the same molecule, the IC50 entry in test [3] is given as “Not Active”. The Ki result in test [1], in test [2] and in test [3] was “Not Active” in each case.

Regarding `CC1(COc2ccc(CC3SC(=O)NC3=O)cc2)CCCCC1` (configuration not stated) [CIGLITAZONE], the IC50 result is “Not Active” in test [1]; “Not Active” at Melanocortin receptor 4; 12600 nM on Substance-K receptor (read-out: IC50); “Not Active” on Calcitonin receptor; “Not Active” in test [2]; “Not Active” on Histamine H2 receptor (cho-k1). Besides, the IC50 result in test [3] was “Not Active”. Moreover, the Ki entry was “Not Active” in test [1], 4190 nM on Substance-K receptor (read-out: Ki), “Not Active” in test [2] and “Not Active” in test [3].

On to `CC(C)Cc1ccc([C@H](C)C(=O)O)cc1` [DEXIBUPROFEN], for which the IC50 entry (in test [1]; at Melanocortin receptor 4; against Substance-K receptor (cho); on Calcitonin receptor; in test [2]; against Histamine H2 receptor (cho-k1)) was “Not Active” throughout. Moreover, the IC50 result in test [3] is given as “Not Active”. Further, the Ki result in test [1], in test [2] and in test [3] was “Not Active” each time.

Consider `O=c1[nH]cnc2c1ncn2[C@H]1CC[C@@H](CO)O1` [DIDANOSINE], for which the IC50 entry (in test [1]; on Melanocortin receptor 4; against Substance-K receptor (cho); on Calcitonin receptor; in test [2]; against Histamine H2 receptor (cho-k1)) was “Not Active” in each case. In test [3], the IC50 result was “Not Active”. Besides, the Ki entry in test [1], in test [2] and in test [3] was “Not Active” each time.

Take `ClC1=C(Cl)[C@]2(Cl)[C@@H]3[C@@H]4C[C@@H]([C@H]5O[C@@H]45)[C@@H]3[C@@]1(Cl)C2(Cl)Cl` [DIELDRIN]: the concentration for half-maximal inhibition (IC50) entry (in test [1]; against Melanocortin receptor 4; on Substance-K receptor (cho); on Calcitonin receptor; in test [2]; against Histamine H2 receptor (cho-k1)) was “Not Active” in each case. Moreover, the IC50 result in test [3] is given as “Not Active”. The Ki entry in test [1], in test [2] and in test [3] was “Not Active” throughout.

Turning to `CCN1CCN(c2cc3c(cc2F)c(=O)c(C(=O)O)cn3C2CC2)CC1` [ENROFLOXACIN], the IC50 entry (in test [1]; on Melanocortin receptor 4; against Substance-K receptor (cho); on Calcitonin receptor; in test [2]; against Histamine H2 receptor (cho-k1)) was “Not Active” in each case. Further, the IC50 entry in test [3] is “Not Active”. The Ki entry in test [1], in test [2] and in test [3] was “Not Active” throughout.

For the molecule `CNC[C@H](O)c1ccc(O)c(O)c1` [EPINEPHRINE], the IC50 entry is “Not Active” in test [1]; “Not Active” against Melanocortin receptor 4; “Not Active” on Substance-K receptor (cho); “Not Active” at Calcitonin receptor; 232 nM in test [2] (read-out: IC50); “Not Active” on Histamine H2 receptor (cho-k1). Besides, the IC50 entry in test [3] is listed as “Not Active”. Besides, the figures for the Ki entry in test [1], in test [2] (read-out: Ki) and in test [3] were “Not Active”, 154 nM and “Not Active”, respectively.

For `CC[C@H]1OC(=O)[C@H](C)[C@@H](O[C@H]2C[C@@](C)(OC)[C@@H](O)[C@H](C)O2)[C@H](C)[C@@H](O[C@@H]2O[C@H](C)C[C@H](N(C)C)[C@H]2O)[C@](C)(O)C[C@@H](C)C(=O)[C@H](C)[C@@H](O)[C@]1(C)O` [ERYTHROMYCIN], the IC50 entry (in test [1]; on Melanocortin receptor 4; against Substance-K receptor (cho); at Calcitonin receptor; in test [2]; against Histamine H2 receptor (cho-k1)) was “Not Active” in each case. Further, the IC50 entry in test [3] is reported as “Not Active”. Moreover, the Ki result in test [1], in test [2] and in test [3] was “Not Active” in each case.

As for `CC12CCC(CC1)C(C)(C)O2` [EUCALYPTOL], the IC50 result (in test [1]; against Melanocortin receptor 4; against Substance-K receptor (cho); at Calcitonin receptor; in test [2]; against Histamine H2 receptor (cho-k1)) was “Not Active” in each case. In addition, the IC50 result in test [3] was “Not Active”. In addition, the Ki entry in test [1], in test [2] and in test [3] was “Not Active” throughout.

As to `NC(N)=Nc1nc(CSCCC(N)=NS(N)(=O)=O)cs1` [FAMOTIDINE], the IC50 entry in test [1] was “Not Active”; against Melanocortin receptor 4, “Not Active”; against Substance-K receptor (cho) it was “Not Active”; on Calcitonin receptor, “Not Active”; in test [2] it was “Not Active”; at Histamine H2 receptor (read-out: IC50), 42 nM. Also, the IC50 entry in test [3] is on record as “Not Active”. Besides, the Ki result in test [1] is “Not Active”; in test [2], “Not Active”; on Histamine H2 receptor (read-out: Ki) it was 41 nM; in test [3] it was “Not Active”.

For the molecule `COC(=O)Nc1nc2ccc(Sc3ccccc3)cc2[nH]1` [FENBENDAZOLE], the half-maximal inhibitory concentration (IC50) entry (in test [1]; at Melanocortin receptor 4; against Substance-K receptor (cho); on Calcitonin receptor; in test [2]; on Histamine H2 receptor (cho-k1)) was “Not Active” in each case. Moreover, the IC50 result in test [3] was “Not Active”. The Ki entry in test [1], in test [2] and in test [3] was “Not Active” in each case.

As to `COc1cc(/C=C/C(=O)O)ccc1O` [FERULATE], the IC50 entry (in test [1]; on Melanocortin receptor 4; on Substance-K receptor (cho); on Calcitonin receptor; in test [2]; at Histamine H2 receptor (cho-k1)) was “Not Active” throughout. For the same molecule, the IC50 entry in test [3] is “Not Active”. Moreover, the Ki entry in test [1], in test [2] and in test [3] was “Not Active” in each case.

Values taken from ChEMBL document CHEMBL1909046, “DrugMatrix in vitro pharmacology data”.
